According to ChEMBL document CHEMBL4507276 (2021):

Legend:
[1] = target: T1, Inhibitor of nuclear factor kappa-B kinase subunit epsilon (Homo sapiens) (UniProt Q14164); settings: Compound concentration 1000.0 nM
T1 sequence (whole entry): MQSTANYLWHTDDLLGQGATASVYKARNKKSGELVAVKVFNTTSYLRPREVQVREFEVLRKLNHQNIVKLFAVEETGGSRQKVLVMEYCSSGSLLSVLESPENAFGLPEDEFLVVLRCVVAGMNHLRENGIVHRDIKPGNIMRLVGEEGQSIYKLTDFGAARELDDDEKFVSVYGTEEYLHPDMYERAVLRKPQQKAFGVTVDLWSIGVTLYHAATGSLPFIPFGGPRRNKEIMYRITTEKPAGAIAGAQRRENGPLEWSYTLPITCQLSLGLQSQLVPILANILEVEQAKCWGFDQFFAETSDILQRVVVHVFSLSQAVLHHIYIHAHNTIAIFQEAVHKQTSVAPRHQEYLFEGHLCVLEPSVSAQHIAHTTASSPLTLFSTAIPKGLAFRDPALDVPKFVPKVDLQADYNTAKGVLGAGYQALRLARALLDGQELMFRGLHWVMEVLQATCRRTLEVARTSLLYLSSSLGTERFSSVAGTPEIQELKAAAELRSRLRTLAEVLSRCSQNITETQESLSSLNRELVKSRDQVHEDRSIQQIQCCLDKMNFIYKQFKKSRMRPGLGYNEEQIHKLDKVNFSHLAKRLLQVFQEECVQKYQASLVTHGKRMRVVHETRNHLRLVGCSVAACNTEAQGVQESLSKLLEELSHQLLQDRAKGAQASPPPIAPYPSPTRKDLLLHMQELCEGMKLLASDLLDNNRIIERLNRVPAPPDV

[2] = target: Serine/threonine-protein kinase MARK2 (Homo sapiens) (UniProt Q7KZI7); settings: Compound concentration 1000.0 nM
[3] = tested on: Proto-oncogene tyrosine-protein kinase receptor Ret (Homo sapiens), P07949 [M918T]; settings: Compound concentration 1000.0 nM
Sequence of Proto-oncogene tyrosine-protein kinase receptor Ret (Homo sapiens), P07949 [M918T] (P07949 whole entry M918T): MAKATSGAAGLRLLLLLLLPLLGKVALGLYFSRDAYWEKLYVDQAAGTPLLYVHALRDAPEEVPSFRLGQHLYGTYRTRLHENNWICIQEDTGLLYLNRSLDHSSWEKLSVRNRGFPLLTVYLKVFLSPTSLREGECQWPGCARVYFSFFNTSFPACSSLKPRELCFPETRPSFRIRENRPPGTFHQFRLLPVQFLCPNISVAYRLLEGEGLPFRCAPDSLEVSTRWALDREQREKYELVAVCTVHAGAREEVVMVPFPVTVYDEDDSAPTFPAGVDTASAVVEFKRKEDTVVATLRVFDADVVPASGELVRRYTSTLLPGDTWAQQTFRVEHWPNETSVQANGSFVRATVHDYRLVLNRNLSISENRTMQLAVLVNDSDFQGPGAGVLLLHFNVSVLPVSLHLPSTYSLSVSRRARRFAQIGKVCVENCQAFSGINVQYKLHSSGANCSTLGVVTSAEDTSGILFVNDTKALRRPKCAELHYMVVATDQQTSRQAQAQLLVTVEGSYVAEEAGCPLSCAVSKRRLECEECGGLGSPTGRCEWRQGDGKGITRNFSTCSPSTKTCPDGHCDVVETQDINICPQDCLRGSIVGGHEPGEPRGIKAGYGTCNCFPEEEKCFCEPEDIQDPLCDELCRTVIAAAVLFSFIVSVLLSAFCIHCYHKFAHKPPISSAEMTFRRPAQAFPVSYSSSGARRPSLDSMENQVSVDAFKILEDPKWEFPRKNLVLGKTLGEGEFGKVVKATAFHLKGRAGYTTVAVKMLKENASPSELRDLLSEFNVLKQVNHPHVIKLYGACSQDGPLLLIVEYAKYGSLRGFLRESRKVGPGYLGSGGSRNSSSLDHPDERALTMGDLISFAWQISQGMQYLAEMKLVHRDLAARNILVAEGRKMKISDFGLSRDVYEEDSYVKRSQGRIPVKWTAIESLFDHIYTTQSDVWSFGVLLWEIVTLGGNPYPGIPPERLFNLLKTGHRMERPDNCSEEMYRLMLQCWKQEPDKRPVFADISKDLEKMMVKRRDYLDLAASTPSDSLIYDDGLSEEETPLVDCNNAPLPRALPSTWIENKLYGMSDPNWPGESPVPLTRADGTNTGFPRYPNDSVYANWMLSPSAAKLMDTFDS

[4] = target: Receptor tyrosine-protein kinase erbB-3 (Homo sapiens) (UniProt P21860); settings: Compound concentration 1000.0 nM
Sequence of Receptor tyrosine-protein kinase erbB-3 (Homo sapiens) (P21860 whole entry): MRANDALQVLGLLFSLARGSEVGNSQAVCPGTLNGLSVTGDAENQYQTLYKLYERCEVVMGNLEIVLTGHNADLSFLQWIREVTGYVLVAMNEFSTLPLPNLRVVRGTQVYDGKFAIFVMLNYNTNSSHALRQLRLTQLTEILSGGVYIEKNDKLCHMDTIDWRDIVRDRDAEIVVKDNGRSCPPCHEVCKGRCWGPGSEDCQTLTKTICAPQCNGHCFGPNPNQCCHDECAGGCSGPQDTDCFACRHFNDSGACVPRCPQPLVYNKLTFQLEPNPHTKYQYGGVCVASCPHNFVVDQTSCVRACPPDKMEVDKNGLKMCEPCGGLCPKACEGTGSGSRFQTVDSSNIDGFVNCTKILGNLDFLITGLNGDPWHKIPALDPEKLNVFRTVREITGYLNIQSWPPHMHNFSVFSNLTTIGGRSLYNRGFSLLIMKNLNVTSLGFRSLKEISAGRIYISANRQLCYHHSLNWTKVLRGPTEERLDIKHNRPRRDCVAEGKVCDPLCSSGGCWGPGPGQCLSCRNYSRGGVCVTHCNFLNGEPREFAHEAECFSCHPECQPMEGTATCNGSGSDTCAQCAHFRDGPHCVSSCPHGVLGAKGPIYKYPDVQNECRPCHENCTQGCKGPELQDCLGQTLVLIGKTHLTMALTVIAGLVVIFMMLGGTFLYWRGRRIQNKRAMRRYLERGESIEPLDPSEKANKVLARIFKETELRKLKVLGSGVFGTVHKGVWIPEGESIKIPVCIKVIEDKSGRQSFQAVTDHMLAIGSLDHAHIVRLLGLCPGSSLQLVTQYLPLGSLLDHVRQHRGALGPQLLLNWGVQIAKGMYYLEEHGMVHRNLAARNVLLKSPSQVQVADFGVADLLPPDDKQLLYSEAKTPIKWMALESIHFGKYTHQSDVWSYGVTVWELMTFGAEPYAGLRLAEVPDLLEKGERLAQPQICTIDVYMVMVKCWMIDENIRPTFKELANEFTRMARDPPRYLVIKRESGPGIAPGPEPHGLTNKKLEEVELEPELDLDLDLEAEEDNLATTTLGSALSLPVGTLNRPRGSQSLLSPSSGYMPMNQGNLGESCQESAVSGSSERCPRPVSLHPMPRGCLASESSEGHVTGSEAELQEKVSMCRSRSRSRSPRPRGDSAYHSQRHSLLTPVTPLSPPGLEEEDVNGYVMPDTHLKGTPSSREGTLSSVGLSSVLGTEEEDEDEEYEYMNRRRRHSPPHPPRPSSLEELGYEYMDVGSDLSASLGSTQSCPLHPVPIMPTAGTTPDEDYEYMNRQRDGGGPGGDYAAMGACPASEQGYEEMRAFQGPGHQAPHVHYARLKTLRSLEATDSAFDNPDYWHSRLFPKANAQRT

[5] = target: Ephrin type-B receptor 6 (Homo sapiens) (UniProt O15197); settings: Compound concentration 1000.0 nM
[6] = target: Activin receptor type-2B (Homo sapiens) (UniProt Q13705); settings: Compound concentration 1000.0 nM
Sequence of Activin receptor type-2B (Homo sapiens) (Q13705 whole entry): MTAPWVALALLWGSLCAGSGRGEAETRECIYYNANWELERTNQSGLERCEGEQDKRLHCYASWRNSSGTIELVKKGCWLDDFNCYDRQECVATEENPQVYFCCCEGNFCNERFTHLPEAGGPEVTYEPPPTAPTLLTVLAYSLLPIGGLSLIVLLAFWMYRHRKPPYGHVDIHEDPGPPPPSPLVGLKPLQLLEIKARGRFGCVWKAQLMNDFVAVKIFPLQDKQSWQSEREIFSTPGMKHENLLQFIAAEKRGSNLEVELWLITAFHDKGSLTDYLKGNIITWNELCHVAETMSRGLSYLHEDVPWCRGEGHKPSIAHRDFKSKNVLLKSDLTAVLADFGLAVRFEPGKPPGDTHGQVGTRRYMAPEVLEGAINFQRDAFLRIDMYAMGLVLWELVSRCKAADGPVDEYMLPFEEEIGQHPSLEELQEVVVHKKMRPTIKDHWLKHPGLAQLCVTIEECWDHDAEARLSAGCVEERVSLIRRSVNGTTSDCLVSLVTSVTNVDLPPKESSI

[7] = target: T2, Muscarinic acetylcholine receptor M2 (Homo sapiens) (UniProt P08172); settings: Compound concentration 10.0 uM
T2 sequence (whole entry): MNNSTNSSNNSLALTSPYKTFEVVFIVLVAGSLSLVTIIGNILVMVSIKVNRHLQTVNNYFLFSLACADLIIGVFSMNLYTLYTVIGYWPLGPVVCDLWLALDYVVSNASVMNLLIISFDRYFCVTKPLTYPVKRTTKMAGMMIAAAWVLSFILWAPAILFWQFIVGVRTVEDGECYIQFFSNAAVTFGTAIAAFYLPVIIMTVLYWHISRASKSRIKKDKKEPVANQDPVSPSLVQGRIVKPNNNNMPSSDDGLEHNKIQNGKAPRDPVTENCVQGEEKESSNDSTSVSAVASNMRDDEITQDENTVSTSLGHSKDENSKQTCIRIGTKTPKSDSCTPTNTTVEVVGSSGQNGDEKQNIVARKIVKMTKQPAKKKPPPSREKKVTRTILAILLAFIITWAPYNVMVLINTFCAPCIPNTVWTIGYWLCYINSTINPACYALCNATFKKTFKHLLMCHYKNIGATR

[8] = target: Dual specificity tyrosine-phosphorylation-regulated kinase 1A (Homo sapiens) (UniProt Q13627); settings: Compound concentration 1000.0 nM
[9] = tested on: Epidermal growth factor receptor (Homo sapiens), P00533 [G719S]; settings: Compound concentration 1000.0 nM
[10] = target: T3, Inhibitor of nuclear factor kappa-B kinase subunit beta (Homo sapiens) (UniProt O14920); settings: Compound concentration 1000.0 nM
T3 sequence (whole entry): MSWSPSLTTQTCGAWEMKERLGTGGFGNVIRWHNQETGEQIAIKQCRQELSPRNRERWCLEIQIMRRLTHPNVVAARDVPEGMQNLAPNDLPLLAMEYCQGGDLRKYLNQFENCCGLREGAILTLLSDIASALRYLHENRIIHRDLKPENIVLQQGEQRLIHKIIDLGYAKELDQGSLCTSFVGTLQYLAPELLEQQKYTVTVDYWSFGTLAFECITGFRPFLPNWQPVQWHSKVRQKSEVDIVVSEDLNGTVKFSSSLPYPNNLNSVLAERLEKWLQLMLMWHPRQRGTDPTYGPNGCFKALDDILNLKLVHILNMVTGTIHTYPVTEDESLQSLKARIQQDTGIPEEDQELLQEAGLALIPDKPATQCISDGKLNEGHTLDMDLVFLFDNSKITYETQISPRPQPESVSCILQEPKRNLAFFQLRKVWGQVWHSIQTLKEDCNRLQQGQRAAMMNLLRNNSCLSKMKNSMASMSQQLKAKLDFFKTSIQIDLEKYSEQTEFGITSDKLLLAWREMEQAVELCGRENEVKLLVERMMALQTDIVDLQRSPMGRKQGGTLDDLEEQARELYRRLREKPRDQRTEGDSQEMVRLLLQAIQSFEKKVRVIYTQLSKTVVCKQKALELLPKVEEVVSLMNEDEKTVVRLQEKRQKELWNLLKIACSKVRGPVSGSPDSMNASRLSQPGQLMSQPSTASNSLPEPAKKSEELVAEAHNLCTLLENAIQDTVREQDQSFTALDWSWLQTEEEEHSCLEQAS

[11] = target: BMP-2-inducible protein kinase (Homo sapiens) (UniProt Q9NSY1); settings: Compound concentration 1000.0 nM
Sequence of BMP-2-inducible protein kinase (Homo sapiens) (Q9NSY1 whole entry, looked up): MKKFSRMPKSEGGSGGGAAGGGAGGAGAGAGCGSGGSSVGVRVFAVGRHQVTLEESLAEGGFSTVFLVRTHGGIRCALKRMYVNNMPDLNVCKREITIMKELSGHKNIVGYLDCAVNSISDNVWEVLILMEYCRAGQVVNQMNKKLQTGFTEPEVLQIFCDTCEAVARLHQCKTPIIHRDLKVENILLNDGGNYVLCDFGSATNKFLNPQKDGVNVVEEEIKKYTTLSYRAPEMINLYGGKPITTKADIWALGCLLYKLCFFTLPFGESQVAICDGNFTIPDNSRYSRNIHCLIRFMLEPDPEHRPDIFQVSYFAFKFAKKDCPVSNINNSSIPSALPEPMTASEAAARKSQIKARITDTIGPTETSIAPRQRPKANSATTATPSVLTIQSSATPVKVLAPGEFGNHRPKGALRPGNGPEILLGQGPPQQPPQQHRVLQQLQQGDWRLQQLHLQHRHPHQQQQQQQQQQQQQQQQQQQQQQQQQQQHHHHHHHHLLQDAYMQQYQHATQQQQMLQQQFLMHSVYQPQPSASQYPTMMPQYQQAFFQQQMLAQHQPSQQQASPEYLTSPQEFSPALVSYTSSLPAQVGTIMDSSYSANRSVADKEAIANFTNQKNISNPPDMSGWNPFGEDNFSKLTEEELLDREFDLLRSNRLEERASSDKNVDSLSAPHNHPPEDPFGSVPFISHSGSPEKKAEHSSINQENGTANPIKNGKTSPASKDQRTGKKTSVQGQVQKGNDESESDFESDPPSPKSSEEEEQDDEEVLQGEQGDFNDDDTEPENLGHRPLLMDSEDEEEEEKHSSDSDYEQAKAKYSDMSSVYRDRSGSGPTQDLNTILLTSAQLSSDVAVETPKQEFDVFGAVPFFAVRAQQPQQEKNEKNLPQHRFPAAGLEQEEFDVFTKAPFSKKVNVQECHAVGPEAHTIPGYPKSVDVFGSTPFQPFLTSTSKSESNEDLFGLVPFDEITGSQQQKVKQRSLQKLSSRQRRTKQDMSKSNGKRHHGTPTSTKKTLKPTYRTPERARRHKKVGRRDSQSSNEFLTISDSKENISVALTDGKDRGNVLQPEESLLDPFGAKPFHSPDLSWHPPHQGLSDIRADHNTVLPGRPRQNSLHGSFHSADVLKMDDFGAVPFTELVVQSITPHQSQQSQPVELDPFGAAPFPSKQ

[12] = target: Histamine H1 receptor (Homo sapiens) (UniProt P35367); settings: Compound concentration 10.0 uM
Sequence of Histamine H1 receptor (Homo sapiens) (P35367 whole entry): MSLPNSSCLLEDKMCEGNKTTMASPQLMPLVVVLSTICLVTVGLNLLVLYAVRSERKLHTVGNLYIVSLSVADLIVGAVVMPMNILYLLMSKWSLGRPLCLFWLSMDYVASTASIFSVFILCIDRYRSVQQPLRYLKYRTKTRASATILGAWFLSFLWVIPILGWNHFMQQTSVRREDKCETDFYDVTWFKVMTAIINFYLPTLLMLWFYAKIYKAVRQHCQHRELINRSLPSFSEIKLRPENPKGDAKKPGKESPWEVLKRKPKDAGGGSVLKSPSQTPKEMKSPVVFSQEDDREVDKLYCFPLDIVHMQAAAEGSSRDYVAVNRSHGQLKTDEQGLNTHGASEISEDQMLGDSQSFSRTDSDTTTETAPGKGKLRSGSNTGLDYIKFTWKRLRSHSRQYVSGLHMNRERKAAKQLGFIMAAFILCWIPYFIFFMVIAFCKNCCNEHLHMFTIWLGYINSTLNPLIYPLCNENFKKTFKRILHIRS

[13] = target: 5-hydroxytryptamine receptor 1D (Homo sapiens) (UniProt P28221); settings: Compound concentration 10.0 uM
Sequence of 5-hydroxytryptamine receptor 1D (Homo sapiens) (P28221 whole entry): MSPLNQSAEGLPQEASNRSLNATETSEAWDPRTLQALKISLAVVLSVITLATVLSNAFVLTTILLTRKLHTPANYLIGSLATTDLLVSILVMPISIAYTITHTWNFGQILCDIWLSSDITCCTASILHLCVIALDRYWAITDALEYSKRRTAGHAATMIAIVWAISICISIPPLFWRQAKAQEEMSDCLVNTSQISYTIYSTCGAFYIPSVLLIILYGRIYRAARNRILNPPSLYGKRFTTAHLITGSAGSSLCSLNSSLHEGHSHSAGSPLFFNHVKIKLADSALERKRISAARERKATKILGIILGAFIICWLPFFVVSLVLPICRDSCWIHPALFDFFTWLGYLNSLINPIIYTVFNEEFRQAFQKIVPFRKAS

CN(C)C(=O)Cn1cc(-c2nc(C3(c4ccc(-c5cnc(N)nc5)cc4)CC3)no2)cn1 [BI 0153]
inactive: residual activity [1] 57% | residual activity [2] 92% | residual activity [3] 99% | residual activity [4] 87% | residual activity [5] 93% | residual activity [6] 96% | inhibition [7] -0.311% | residual activity [8] 66% | residual activity [9] 100% | residual activity [10] 90% | residual activity [11] 99% | inhibition [12] 8.78% | inhibition [13] -3.06%

CN(C)C(=O)Cn1cc(-c2nc([C@@](C)(c3ccc(-c4cnc(N)nc4)cc3)C3CC3)no2)cn1 [BI 665915]
inactive: residual activity [1] 86% | residual activity [2] 100% | residual activity [3] 83% | residual activity [4] 95% | residual activity [5] 76% | residual activity [6] 81% | inhibition [7] -7.53% | residual activity [8] 73% | residual activity [9] 98% | residual activity [10] 100% | residual activity [11] 100% | inhibition [12] 7.66% | inhibition [13] -5.95%
